{"source": "patent US9610235B2", "about": "“Methods and compositions to improve mechanical resistance of teeth” (THEOCORP HOLDING CO., LLC, priority 2010, dated 2017)", "key": {"[1]": {"assay": "Scratched human teeth, SEM comparison of theobromine and NaF", "conditions": "90 minutes incubation; NaF 0.25%, theobromine 200 mg/L", "method": "(§1) Isolated human teeth were scratched with a diamond scribe on the enamel surface. Each tooth was then etched for 15 seconds in 0.1 M HCl, rinsed with distilled water, then exposed for 15 seconds to a 0.1 M oxalic acid solution, and then rinsed once more with distilled water. […] The pH was adjusted to 7.4-7.6, after which a 0.2 M CaCl2 solution was added with stirring (the solution turns immediately turbid from Ca-phosphate precipitation). The pH was checked and adjusted immediately to between 7.4 and 7.6, as required. […] A volume ratio of about 3:5 Na2HPO4 solution-to-CaCl2 solution was used to avoid any excess of either Ca or P. The teeth were so incubated at room temperature for about 90 minutes, after which they were removed from solution, carefully rinsed several times with distilled water, and then dried in a desiccator for 24 hours. After drying, the teeth were carbon-coated for viewing via scanning electron microscopy (SEM)."}, "[2]": {"conditions": "deposition in drilled holes; NaF 0.25%, theobromine 200 mg/L", "method": "as §1\nUsing a dental drill, holes were drilled into the enamel surfaces of isolated human teeth, with each tooth receiving three holes in three separate locations. […] The teeth were visualized via SEM, as in EXAMPLE 4, and the amount of calcium phosphate deposition measured for each experimental condition."}}}
{"smiles": "[F-].[Na+]", "note": "[NaF, sodium fluoride]", "values": [{"measurement": "appearance of diamond-scribe scratch in SEM", "setting": "[1]", "value": "partly-filled"}, {"measurement": "Calcium Phosphate (μm) ± S.D.", "setting": "[2]", "value": "70 ± 8.8", "unit": "μm"}]}
